Data set [1] has as its system B16-F10. In words: Antitumor activity against mouse B16/F10 cells implanted in BALB/c mouse assessed as tumor growth inhibition at 100 mg/kg, ig administered once daily via gavage for 15 days relative to control. Type of data set: functional. Conditions: B16-F10, po, 360 h, read-out: TGI.
The test system of data set [2] is B16-F10. In words: Antitumor activity against mouse B16/F10 cells implanted in BALB/c mouse assessed as tumor weight at 25 mg/kg, ig administered once daily via gavage for 15 days measured 24 hrs post-last dose (reference value: 0.84 +/- 0.32 g). Type of data set: functional.
Data set [3] has as its system Mus musculus. In words: Effect on spleen helper T cell population in mouse B16/F10 cells implanted […] mouse assessed as CD3-positive/CD4-positive cell population at 25 mg/kg, ig administered once daily via gavage for 15 days measured 24 hrs post-last dose by immunostaining based flow cytometry (reference value: 27.7%). It counts as ADME, organism-based. The following applies: in vivo, po. On the technique in general: A flow cytometer gives signals particle by particle.

Data set [4] has as its system Mus musculus. In words: Immunostimulatory activity in mouse B16/F10 cells implanted […] mouse assessed as increase in activation of tumor-microenvironment mediated activated cytotoxic T cells in tumor by measuring CD3-positive cell population at 100 mg/kg, ig administered once daily via gavage for 15 days measured 24 hrs post-last dose by immunostaining based flow cytometry (reference value: 20.8%). Type of data set: functional.

Data set [5] in a line: Selectivity ratio of IC50 for inhibition of mouse biotin-labelled C-terminal Fc-fused/Avi-tagged PD1/Fc-fused PDL1 expressed in HEK293 cells protein-protein interaction to IC50 for inhibition of human PD1/PDL1 protein-protein interaction. Type of data set: cell-based.
Data set [6] relates to Mus musculus. The data set can be described thus: Immunostimulatory activity in mouse B16/F10 cells implanted […] mouse assessed as increase in activation of tumor-microenvironment mediated activated cytotoxic T cells in tumor by measuring melanoma cell population at 50 mg/kg, ig administered once daily via gavage for 15 days measured 24 hrs post-last dose by immunostaining based flow cytometry (reference value: 72.8%). Type of data set: functional.

The subject of data set [7] is Mus musculus. In words: Immunostimulatory activity in mouse B16/F10 cells implanted BALB/c mouse assessed as increase in activation of tumor-microenvironment mediated helper T cells in tumor by measuring melanoma cell population at 100 mg/kg, ig administered once daily via gavage for 15 days measured 24 hrs post-last dose by immunostaining based flow cytometry (reference value: 70%). Type of data set: functional.

The subject of data set [8] is Mus musculus. In words: Effect on activated cytotoxic T cell population in mouse B16/F10 cells implanted […] mouse assessed as CD3-positive cell population in spleen at 50 mg/kg, ig administered once daily via gavage for 15 days measured 24 hrs post-last dose by immunostaining based flow cytometry (reference value: 27.5 %). It counts as organism-based. Conditions: in vivo, po.

Data set [9] concerns the target Programmed cell death protein 1/Programmed cell death 1 ligand 1 (Homo sapiens) (UniProt Q15116+Q9NZQ7). In words: Ratio of EC50 for inhibition of human PD1/PDL1 protein-protein interaction in human PBMC-derived CD3-positive T cells co-cultured with human Hep3B cells expressing human PDL1/OS-8 assessed as increase in IFNgamma secretion to IC50 for inhibition of human PD1/PDL1 protein-protein interaction.

A short description of data set [10]: Half life in Sprague-Dawley rat at 10 mg/kg, po by LC-MS/MS analysis. Conditions: in vivo. It counts as ADME, organism-based.
For data set [11], the system named is Mus musculus. In words: Immunostimulatory activity in mouse B16/F10 cells implanted BALB/c mouse assessed as increase in activation of tumor-microenvironment mediated helper T cells in tumor by measuring melanoma cell population at 50 mg/kg, ig administered once daily via gavage for 15 days measured 24 hrs post-last dose by immunostaining based flow cytometry (reference value: 70%). Type of data set: functional.

Data set [12] deals with Mus musculus. The data set can be described thus: Effect on activated cytotoxic T cell population in mouse B16/F10 cells implanted […] mouse assessed as CD3-positive/CD8-positive cell population in spleen at 100 mg/kg, ig administered once daily via gavage for 15 days measured 24 hrs post-last dose by immunostaining based flow cytometry (reference value: 14.2 %). Type of data set: organism-based. The following applies: in vivo, po.

Data set [13] can be described thus: Toxicity in mouse B16/F10 cells implanted […] mouse assessed as effect on physical activity at 25 to 100 mg/kg, ig administered once daily via gavage for 15 days measured during compound dosing. It counts as organism-based. Conditions: in vivo, po, 360 h.
In data set [14] the test system is Mus musculus. In words: Effect on spleen helper T cell population in mouse B16/F10 cells implanted […] mouse assessed as CD3-positive cell population at 50 mg/kg, ig administered once daily via gavage for 15 days measured 24 hrs post-last dose by immunostaining based flow cytometry (reference value: 14.7%). Type of data set: organism-based. Conditions: in vivo, po.

The subject of data set [15] is Mus musculus. The data set can be described thus: Effect on spleen helper T cell population in mouse B16/F10 cells implanted […] mouse assessed as CD3-positive cell population at 25 mg/kg, ig administered once daily via gavage for 15 days measured 24 hrs post-last dose by immunostaining based flow cytometry (reference value: 14.7%). Conditions: in vivo, po. Type of data set: organism-based.

The subject of data set [16] is Mus musculus. The data set can be described thus: Immunostimulatory activity in mouse B16/F10 cells implanted BALB/c mouse assessed as increase in activation of tumor-microenvironment mediated activated cytotoxic T cells in tumor by measuring CD3-positive/CD8-positive cell population at 50 mg/kg, ig administered once daily via gavage for 15 days measured 24 hrs post-last dose by immunostaining based flow cytometry (reference value: 4.18%). It counts as functional.

The subject of data set [17] is Mus musculus. The data set can be described thus: Immunostimulatory activity in mouse B16/F10 cells implanted BALB/c mouse assessed as increase in activation of tumor-microenvironment mediated helper T cells in tumor by measuring CD3-positive cell population at 100 mg/kg, ig administered once daily via gavage for 15 days measured 24 hrs post-last dose by immunostaining based flow cytometry (reference value: 18.9%). It counts as functional.

The test system of data set [18] is Mus musculus. In words: Immunostimulatory activity in mouse B16/F10 cells implanted […] mouse assessed as increase in activation of tumor-microenvironment mediated helper T cells in tumor by measuring CD3-positive cell population at 25 mg/kg, ig administered once daily via gavage for 15 days measured 24 hrs post-last dose by immunostaining based flow cytometry (reference value: 18.9%). It counts as functional.

The test system of data set [19] is Mus musculus. The data set can be described thus: Effect on spleen helper T cell population in mouse B16/F10 cells implanted […] mouse assessed as CD3-positive cell population at 100 mg/kg, ig administered once daily via gavage for 15 days measured 24 hrs post-last dose by immunostaining based flow cytometry (reference value: 14.7%). Type of data set: organism-based. Conditions: in vivo, po.

Data set [20] deals with Mus musculus. In words: Immunostimulatory activity in mouse B16/F10 cells implanted BALB/c mouse assessed as increase in activation of tumor-microenvironment mediated helper T cells in tumor by measuring CD4-positive cell population at 50 mg/kg, ig administered once daily via gavage for 15 days measured 24 hrs post-last dose by immunostaining based flow cytometry (reference value: 4.95%). It counts as functional.

Data set [21] relates to Mus musculus. In words: Effect on spleen helper T cell population in mouse B16/F10 cells implanted […] mouse assessed as CD3-positive/CD4-positive cell population at 100 mg/kg, ig administered once daily via gavage for 15 days measured 24 hrs post-last dose by immunostaining based flow cytometry (reference value: 27.7 %). Conditions: in vivo, po. Type of data set: ADME, organism-based.

In data set [22] the test system is Mus musculus. In words: Immunostimulatory activity in mouse B16/F10 cells implanted BALB/c mouse assessed as increase in activation of tumor-microenvironment mediated activated cytotoxic T cells in tumor by measuring CD8-positive cell population at 100 mg/kg, ig administered once daily via gavage for 15 days measured 24 hrs post-last dose by immunostaining based flow cytometry (reference value: 2.2%). Type of data set: functional.

Data set [23] has as its system B16-F10. In words: Antitumor activity against mouse B16/F10 cells implanted in BALB/c mouse assessed as tumor growth inhibition at 50 mg/kg, ig administered once daily via gavage for 15 days relative to control. Type of data set: functional. Conditions: B16-F10, po, 360 h, read-out: TGI.

Turning to `Cc1c(COc2cc(OCc3cccc(C#N)c3)c(CNC(C)(C)C(=O)O)cc2Cl)cccc1-c1ccccc1`, the inhibition in vivo at 100 mg/kg with B16-F10 [1] stood at 80.9%. Further, the Activity is 0.41 g in the data set on B16-F10 [2]; 24.4% in the data set with Mus musculus [3]; 18.7% in the data set with Mus musculus [4]; 64.9% in the data set with Mus musculus [6]; 57% with Mus musculus [7]; 28.8% in the data set on Mus musculus [8]. Further, the Activity with Mus musculus [11] is 68.4%; in the data set with Mus musculus [12], 11.6%; in data set [13], “Non-Toxic”; with Mus musculus [14] it was 16.7%; in the data set on Mus musculus [15], 13.8%; in the data set on Mus musculus [16], 14.8%. In addition, the Activity was 28% in the data set with Mus musculus [17]; 15% in the data set with Mus musculus [18]; 12.8% with Mus musculus [19]; 2.27% in the data set with Mus musculus [20]; 25% in the data set with Mus musculus [21]; 13.5% with Mus musculus [22]. The Ratio IC50 in [5] was greater than 80. Also, the Ratio in data set [9] was 240. For the same molecule, the half-life (usually the time needed for the level to fall by half in the phase considered) in data set [10] was 10.9 h. Besides, the inhibition in vivo at 50 mg/kg with B16-F10 [23] came out at 75%.

The record behind these values is ChEMBL document CHEMBL4619786, “Discovery of Novel Resorcinol Dibenzyl Ethers Targeting the Programmed Cell Death-1/Programmed Cell Death-Ligand 1 Interaction as Potential Anticancer Agents” (J Med Chem, 2020).
